Series [1] relates to Sp1 mRNA and Sp1 target genes VEGF, Mdm2, DNMT1. The experiment in a line: mRNA expression of Sp1 and Sp1 downstream target genes in LNCaP cells. To be noted: for Sp1 mRNA expression: high doses. In kind it is cell-based. As to the method: RNA Isolation and Reverse Transcription (RT)-PCR.
LNCaP cells were subject to total RNA isolation by using a Trizol reagent (Invitrogen Corporation, CA). RNA concentrations were determined by measuring absorption at 260 nm in a spectrophotometer. Aliquots of 2 μg of total RNA from each sample were reverse transcribed to cDNAs using the iScript cDNA Synthesis Kit (Bio-Rad) according to the manufacturer's instructions. PCR products were resolved electrophoretically in 1.2% agarose gels and visualized by ethidium bromide staining.

Series [2] relates to normal prostate epithelial cells (PrECs). The series can be described thus: MTT viability assay, normal prostate epithelial cells. (In general: Formazan colour is commonly taken as a measure of viable cells.)
Description: (§2) LNCaP androgen-dependent (p53^+/+) and PC-3 androgen-nonresponsive (p53^−/−) prostate cancer cells were purchased from the American Type Culture Collection (Manassas, Va.), and cultured in RPMI 1640 medium containing 10% heat-inactivated FBS. […] All cell types were cultured at 37° C. in a humidified incubator containing 5% CO2. Cells in log phase growth were harvested by trypsinization for use in the MTT viability assay. LNCaP cells were plated in poly-D-lysine coated culture flasks in order to assist cell adherence to the surface. Prior to drug treatment, cells were plated in a density of 12,000 cells/cm^2 surface area in the respective culture medium for 24-48 h, followed by individual test agents in 2.5% FBS-supplemented RPMI medium.
The target of another series is T1, PP2A (Homo sapiens, UniProt P67775).
T1 construct: endogenous in cells; host or cells: LNCaP
T1 sequence (P67775 whole entry): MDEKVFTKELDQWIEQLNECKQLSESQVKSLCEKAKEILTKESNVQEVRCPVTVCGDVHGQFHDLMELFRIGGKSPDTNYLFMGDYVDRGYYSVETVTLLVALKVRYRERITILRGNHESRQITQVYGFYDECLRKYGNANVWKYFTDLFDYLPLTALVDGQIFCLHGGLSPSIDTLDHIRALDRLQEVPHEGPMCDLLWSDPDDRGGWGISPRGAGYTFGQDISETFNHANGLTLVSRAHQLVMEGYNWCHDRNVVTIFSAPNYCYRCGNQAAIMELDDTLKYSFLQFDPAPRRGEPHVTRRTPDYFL
The experiment in a line: PP2A immunoprecipitation phosphatase activity assay in drug-treated LNCaP cells. The format is cell-based. To be noted: for PP2A phosphatase activity: LNCaP cells, 12 h drug exposure; for PP2A expression (protein level): after drug treatment, Western blot. As to the method: PP2A activity in drug-treated cells was determined by using a PP2A Immunoprecipitation Phosphatase Assay Kit (Millipore) according to the manufacturer's instructions. LNCaP cells were exposed to DMSO, VES, or TS-1 at the indicated concentrations in 2.5% FBS supplemented medium for 12 h, and subjected to cell lysis in a phosphate-free lysis buffer containing 20 mmol/L imidazole-HCl, pH 7.0, 2 mM EDTA, 2 mM EGTA, 2 mM AEBSF, 1 mM EDTA, 130 μM bestatin, 14 μM E-64, 1 μM leupeptin, and 0.3 μM aprotinin. The suspension was sonicated (Virtis) at 20% output for 10 sec, followed by centrifugation at 2000×g for 5 min. One-μL aliquots of the supernatants were taken for protein determination by BCA assays, and the remaining supernatants were used for phosphatase activity assays. Aliquots of cell lysates containing 400 μg of proteins were combined with 4 μg of anti-PP2Ac antibody (Millipore), to which was added PP2A assay buffer (20 mmol/L Hepes pH 7.0, 100 mM NaCl) to a final volume of 500 μL followed by 40 μL of Protein A-agarose. Mixtures were incubated at 4° C. for 2 h, and briefly centrifuged. The immunocomplexes were washed and used for the phosphatase activity assay. The amounts of PP2A in the immunocomplexes were determined semi-quantitatively by Western blotting.

The next series relates to Sp1. The experiment in a line: Sp1 protein expression, stability and ubiquitination in LNCaP cells. In kind it is cell-based. As to conditions: for Sp1 protein half-life relative to DMSO control / Sp1 protein expression: LNCaP cells; for Sp1 ubiquitination: LNCaP cells expressing HA-ubiquitin and Flag-Sp1, 24 h; for Sp1 protein expression: Western blot. The protocol:
(§1) Cells cultured in T25 flasks were collected by scraping, and cell pellets were washed once with PBS. Cells were lysed in a lysis buffer consisting of 1% SDS, 10 mM EDTA and 50 mM Tris-HCl, pH 8.1, in the presence of a commercial protease inhibitor cocktail from Aldrich-Sigma (2 mM AEBSF, 1 mM EDTA, 130 μM bestatin, 14 μM E-64, 1 μM leupeptin, and 0.3 μM aprotinin). Following a 10-sec sonication using 20% output in a Virsonic 300 sonicator (Virtis, Gardiner N.Y.) to disrupt cellular organelles and genomic DNA, cell lysates were centrifuged at 15,200×g for 15 minutes. One μL of the suspension was used for protein determination using a colorimetric BCA assay (Pierce, Rockford, Ill.), and to the remaining solution was added an equivalent volume of 2×SDS-polyacrylamide gel electrophoresis sample loading buffer (62.5 mM Tris-HCl, pH 6.8, 4% SDS, 5% β-mercaptoethanol, 20% glycerol, and 0.1% bromophenol blue), and boiled for 5 min. Equal amounts of proteins were resolved in 8% SDS-polyacrylamide gels, and transferred to nitrocellulose membranes using a semidry transfer cell. The transblotted membrane was washed twice with Tris-buffered saline containing 0.1% Tween 20 (TBST). After blocking with TBST containing 5% nonfat milk for 40 min, the membrane was incubated with the appropriate primary antibody in TBST-1% nonfat milk at 4° C. overnight. All primary antibodies were diluted 1:1000 in 1% nonfat milk-containing TBST. After treatment with the primary antibody, the membrane was washed three times with TBST for a total of 15 min, followed by incubation with goat anti-rabbit or anti-mouse Immunoglobulin G (IgG)-horseradish peroxidase conjugates (diluted 1:2000) for 1 h at room temperature and four washes with TBST for a total of 1 h. The immunoblots were visualized by enhanced chemiluminescence.
LNCaP cells were co-transfected with 5 μg each of Flag-Sp1 and HA-ubiquitin plasmids in an Amaxa Nucleofector using a LNCaP-specific nucleofector kit. These transiently transfected cells were seeded in 6-well plates at 2×10^5 per well. After 48-h incubation, cells were exposed to VES or TS-1 at the indicated concentration for 48 h, and lysed by a radioimmunoprecipitation assay lysis buffer (Santa Cruz Biotechnology) in the presence of a freshly prepared cocktail of phosphatase and protease inhibitors (2 mmol/L AEBSF, 1 mM EDTA, 130 μM bestatin, 14 μM E-64, 1 μM leupeptin, and 0.3 μM aprotinin, 2 mM imidazole, 1 mM sodium fluoride, 1.15 mM sodium molybdate, 1 mM sodium orthovanadate, and 4 mmol/L sodium tartrate dihydrate). After centrifugation at 13,000×g for 15 min, the supernatants were collected, preincubated with protein A/G agarose (Santa Cruz Biotechnology) for 15 min, and centrifuged at 1,000×g for 5 min. Supernatant (20 μL) were stored at 4° C. to be used as input, whereas the remaining supernatant was exposed to 4 μg of anti-Sp1 antibodies at 4° C. for 12 h, followed by protein A/G agarose beads at 4° C. for another 2 h. After brief centrifugation, immunoprecipitates were collected, washed with the aforementioned lysis buffer four times, suspended in 2×SDS sample buffer, and subjected to Western blot analysis with antibodies against HA and Flag.

Series [3] relates to Akt, ERK, JNK and p38 phosphorylation in PC-3 cells. The series can be described thus: Western blot of kinase phosphorylation in PC-3 cells. The format is cell-based. As to the method: as §1, with “All primary antibodies were diluted 1:1000 in 1% nonfat milk-containing TBST. After treatment with the primary antibody, the membrane was washed three times with TBST for a total of 15 min, followed by incubation with goat anti-rabbit or anti-mouse Immunoglobulin G (IgG)-horseradish peroxidase conjugates (diluted 1:2000) for 1 h at room temperature and four washes with TBST for a total of 1 h. The immunoblots were visualized by enhanced chemiluminescence.” left out
For orientation: Immunoblotting shows a protein as a band on a membrane.

For a further series, the system named is LNCaP cells. The experiment in a line: MTT viability assay, LNCaP cells. The format is cell-based.
Series [4] relates to Akt, ERK, JNK and p38 phosphorylation in LNCaP cells. The experiment in a line: Western blot of kinase phosphorylation in LNCaP cells. The format is cell-based. The protocol:
as §1, with “All primary antibodies were diluted 1:1000 in 1% nonfat milk-containing TBST. After treatment with the primary antibody, the membrane was washed three times with TBST for a total of 15 min, followed by incubation with goat anti-rabbit or anti-mouse Immunoglobulin G (IgG)-horseradish peroxidase conjugates (diluted 1:2000) for 1 h at room temperature and four washes with TBST for a total of 1 h. The immunoblots were visualized by enhanced chemiluminescence.” left out

Series [5] deals with normal prostate epithelial cells (PrECs).
Description: as §2

Where two headings read alike, the source gives them in different places.

For the compound `Cc1c(C)c2c(c(C)c1OC(=O)CCC(=O)O)CCC(C)(CCCC(C)CCCC(C)C)O2` (stereo not shown) [TS-1, succinic acid mono-[2-(4,8-dimethyl-nonyl)-2,5,7,8-tetramethylchroman-6-yl]ester], in series [1], the “transcription of Sp1 downstream target genes (VEGF, Mdm2, DNMT1)” value is recorded as “dose-dependent transcriptional repression” and the “Sp1 mRNA expression” value is reported as “remained unaltered”. Moreover, in series [2], the “antiproliferative effect on PrECs relative to malignant cells” value is listed as “resistant”. At PP2A, the PP2A phosphatase activity result is listed as “increase PP2A phosphatase activity” and the “PP2A expression (protein level)” value is on record as “without affecting its expression”. Further, in the series with Sp1, the “Sp1 protein half-life relative to DMSO control” value is given as “shortened half-life”, the Sp1 ubiquitination entry is listed as “increased the extent of Sp1 ubiquitination” and the Sp1 protein expression result was “reduce Sp1 levels”. The “phosphorylation levels of Akt, ERK, JNK, p38” value (from here on “phosphorylation levels of Akt”) in series [3] was “also noted in PC-3 cells”. In the series on LNCaP cells, the “cell viability of LNCaP cells” value is on record as “suppressing the cell viability”. In series [4], the “phosphorylation levels of Akt” value is “dose-dependent reduction in the phosphorylation levels of all four kinases examined”.
Consider `Cc1c(C)c2c(c(C)c1OC(=O)CCC(=O)O)CC[C@@](C)(CCC[C@H](C)CCC[C@H](C)CCCC(C)C)O2` [VES, α-tocopheryl succinate], for which, in series [1], the “transcription of Sp1 downstream target genes (VEGF, Mdm2, DNMT1)” value is “dose-dependent transcriptional repression” and the “Sp1 mRNA expression” value was “remained unaltered”. Besides, at PP2A, the PP2A phosphatase activity result is listed as “increase PP2A phosphatase activity” and the “PP2A expression (protein level)” value is reported as “without affecting its expression”. Besides, in the series on Sp1, the “Sp1 protein half-life relative to DMSO control” value was “shortened half-life”, the Sp1 ubiquitination entry is “increased the extent of Sp1 ubiquitination” and the Sp1 protein expression entry is given as “reduce Sp1 levels”. Moreover, in series [3], the “phosphorylation levels of Akt” value is “also noted in PC-3 cells”. Further, the “antiproliferative effect on PrECs relative to malignant cells” value in series [5] is given as “resistant”. The “cell viability of LNCaP cells” value in the series on LNCaP cells was “suppressing the cell viability”. The “phosphorylation levels of Akt” value in series [4] is listed as “dose-dependent reduction in the phosphorylation levels of all four kinases examined”.

The values are drawn from patent US8461362B2, “Protein phosphatase 2A-activating agents” (The Ohio State University Research Foundation, priority 2009, dated 2013).
